The source of these data is ChEMBL document CHEMBL5131538 (J Med Chem, 2022).

Series [1] in a line: AUC (0 to infinity) in Sprague-Dawley rat at 3 mg/kg, po. The class given is ADME, organism-based. Further details: time infinity, dose 3 mg/kg, route po. The settings on record: in vivo.
Series [2] is described as follows: Half life in Sprague-Dawley rat at 1 mg/kg, iv. The settings on record: in vivo. The series is classed as ADME, organism-based.
Series [3] in a line: Half life in Sprague-Dawley rat at 3 mg/kg, po. The settings on record: in vivo. The class given is ADME, organism-based.
For the next series, the system named is CHO-K1. Kind of series: Antagonist activity at human mineralocorticoid receptor S810L mutant expressed in CHO-K1 cells assessed as inhibition of aldosterone-induced transcriptional activity incubated for 24 hrs in presence of 0.5 nM aldosterone by Steady-Glo reagent based reporter gene assay relative to control. The series is classed as cell-based. Further details: scale not given: the % may be the effect or the level left. The note with it: filed as antagonist. In general terms: Reporter assays use an easily measured gene product as a stand-in for the process of interest.

Series [4] is described as follows: In vivo antagonist activity at MR in po dosed Sprague-Dawley rat assessed as reversal of aldosterone induced decrease in urinary Na+/K+ ratio preincubated for 3 hrs followed by aldosterone stimulation and measured over 5 hrs by automated electrolyte analyzer anlysis. The class given is functional. The note with it: time 8 hrs.
Series [5] has as its system Rattus norvegicus. The series can be described thus: Potency index, ratio of eplerenone ED50 to compound ED50 for antagonist activity MR in po dosed Sprague-Dawley rat assessed as reversal of aldosterone induced decrease in urinary Na+/K+ ratio. The series is classed as functional.
Series [6] concerns Rattus norvegicus. Kind of series: Antihypertensive activity against aldosterone induced uninephrectomized Sprague-Dawley rat assessed as inhibition of area under the curve changes in systolic blood pressure at 3 mg/kg, po qd administered for 4 weeks (reference value: 294.5 +/-48.5 mmHg.day). The class given is functional, organism-based.
For series [7], the system named is Rattus norvegicus. The series can be described thus: Organ protective activity in aldosterone-induced uninephrectomized Sprague-Dawley rat model assessed as myocardial necrosis and interstitial cellular infiltration in heart by measuring pathological lesion score at 1 mg/kg/day by sirius red and H and E staining based histological analysis (reference value: 1.7 +/- 0.3). The series is classed as functional.

Series [8] has as its system Rattus norvegicus. Kind of series: Organ protective activity in aldosterone-induced uninephrectomized Sprague-Dawley rat model assessed as degeneration of arteries and perivascular fibrosis in heart by measuring pathological lesion score at 1 mg/kg/day by sirius red and H and E staining based histological analysis (reference value: 1.6 +/- 0.4). The series is classed as functional.

Series [9] deals with Rattus norvegicus. The series can be described thus: Organ protective activity in aldosterone-induced uninephrectomized Sprague-Dawley rat model assessed as degeneration of arteries and perivascular fibrosis in heart by measuring pathological lesion score at 3 mg/kg/day by sirius red and H and E staining based histological analysis (reference value: 1.6 +/- 0.4). The series is classed as functional.

For series [10], the system named is Rattus norvegicus. Kind of series: Organ protective activity in aldosterone-induced uninephrectomized Sprague-Dawley rat model assessed as glomerular mesangial proliferation in kidney by measuring pathological lesion score at 3 mg/kg/day by PAS and H and E staining based histological analysis (reference value: 1.9 +/- 0.5). The class given is functional.
For series [11], the system named is Rattus norvegicus. The series can be described thus: Organ protective activity in aldosterone-induced uninephrectomized Sprague-Dawley rat model assessed as glomerular mesangial proliferation in kidney by measuring pathological lesion score at 10 mg/kg/day by PAS and H and E staining based histological analysis (reference value: 1.9 +/- 0.5). The series is classed as functional.

In series [12] the test system is Rattus norvegicus. The series can be described thus: Organ protective activity in aldosterone-induced uninephrectomized Sprague-Dawley rat model assessed as renal tubular ectasia in kidney by measuring pathological lesion score at 1 mg/kg/day by PAS and H and E staining based histological analysis (reference value: 1.3 +/- 0.4). The class given is functional.
Series [13] relates to Rattus norvegicus. The series can be described thus: Organ protective activity in aldosterone-induced uninephrectomized Sprague-Dawley rat model assessed as renal tubular ectasia in kidney by measuring pathological lesion score at 3 mg/kg/day by PAS and H and E staining based histological analysis (reference value: 1.3 +/- 0.4). The class given is functional.
Series [14] concerns Rattus norvegicus. The series can be described thus: Organ protective activity in aldosterone-induced uninephrectomized Sprague-Dawley rat model assessed as renal tubular regeneration in kidney by measuring pathological lesion score at 1 mg/kg/day by PAS and H and E staining based histological analysis (reference value: 1.7 +/- 0.5). The class given is functional.
The subject of series [15] is Rattus norvegicus. Kind of series: Organ protective activity in aldosterone-induced uninephrectomized Sprague-Dawley rat model assessed as renal tubular regeneration in kidney by measuring pathological lesion score at 3 mg/kg/day by PAS and H and E staining based histological analysis (reference value: 1.7 +/- 0.5). The series is classed as functional.
Series [16] has as its system Rattus norvegicus. Kind of series: Organ protective activity in aldosterone-induced uninephrectomized Sprague-Dawley rat model assessed as renal tubular regeneration in kidney by measuring pathological lesion score at 10 mg/kg/day by PAS and H and E staining based histological analysis (reference value: 1.7 +/- 0.5). The class given is functional.
The subject of series [17] is Rattus norvegicus. Kind of series: Organ protective activity in aldosterone-induced uninephrectomized Sprague-Dawley rat model assessed as urinary cast in kidney by measuring pathological lesion score at 1 mg/kg/day by PAS and H and E staining based histological analysis (reference value: 1.4 +/- 0.4). The class given is functional.
For series [18], the system named is Rattus norvegicus. The series can be described thus: Organ protective activity in aldosterone-induced uninephrectomized Sprague-Dawley rat model assessed as urinary cast in kidney by measuring pathological lesion score at 3 mg/kg/day by PAS and H and E staining based histological analysis (reference value: 1.4 +/- 0.4). The class given is functional.
For series [19], the system named is Rattus norvegicus. The series can be described thus: Organ protective activity in aldosterone-induced uninephrectomized Sprague-Dawley rat model assessed as urinary cast in kidney by measuring pathological lesion score at 10 mg/kg/day by PAS and H and E staining based histological analysis (reference value: 1.4 +/- 0.4). The series is classed as functional.
The subject of series [20] is Rattus norvegicus. Kind of series: Organ protective activity in aldosterone-induced uninephrectomized Sprague-Dawley rat model assessed as interstitial cellular infiltration in kidney by measuring pathological lesion score at 1 mg/kg/day by PAS and H and E staining based histological analysis (reference value: 1.4 +/- 0.4). The series is classed as functional.
Series [21] concerns Rattus norvegicus. Kind of series: Organ protective activity in aldosterone-induced uninephrectomized Sprague-Dawley rat model assessed as interstitial cellular infiltration in kidney by measuring pathological lesion score at 3 mg/kg/day by PAS and H and E staining based histological analysis (reference value: 1.4 +/- 0.4). The series is classed as functional.
The target of another series is T1, Glucocorticoid receptor (Homo sapiens, UniProt P04150).
T1 sequence (P04150 whole entry): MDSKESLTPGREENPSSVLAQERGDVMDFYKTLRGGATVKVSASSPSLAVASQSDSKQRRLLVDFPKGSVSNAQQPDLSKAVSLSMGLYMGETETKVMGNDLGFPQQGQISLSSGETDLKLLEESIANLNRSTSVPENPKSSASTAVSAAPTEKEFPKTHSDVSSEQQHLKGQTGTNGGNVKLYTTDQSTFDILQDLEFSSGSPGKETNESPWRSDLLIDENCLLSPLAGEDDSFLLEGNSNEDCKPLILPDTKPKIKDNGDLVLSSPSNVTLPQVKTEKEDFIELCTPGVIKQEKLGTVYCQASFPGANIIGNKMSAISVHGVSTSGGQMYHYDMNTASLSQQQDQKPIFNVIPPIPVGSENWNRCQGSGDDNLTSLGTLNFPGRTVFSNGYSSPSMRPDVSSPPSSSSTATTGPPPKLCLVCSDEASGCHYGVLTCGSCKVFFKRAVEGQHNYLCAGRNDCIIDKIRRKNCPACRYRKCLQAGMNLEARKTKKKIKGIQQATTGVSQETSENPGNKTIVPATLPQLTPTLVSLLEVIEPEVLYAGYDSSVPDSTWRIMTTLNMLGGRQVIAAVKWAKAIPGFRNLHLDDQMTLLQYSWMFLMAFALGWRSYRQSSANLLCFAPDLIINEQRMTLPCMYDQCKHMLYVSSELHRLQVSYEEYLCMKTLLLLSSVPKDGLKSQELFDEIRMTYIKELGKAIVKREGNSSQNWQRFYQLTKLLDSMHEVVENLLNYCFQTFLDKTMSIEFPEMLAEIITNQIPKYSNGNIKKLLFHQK
The series can be described thus: biochemical.

Description for Glucocorticoid receptor: Displacement of [3H]-dexamethasone from recombinant full length human glucocorticoid receptor expressed in baculovirus infected insect cells incubated overnight by liquid scintillation counting analysis

`CC1(C)Oc2cc(NS(C)(=O)=O)ccc2N(c2ccc(F)cc2)C1=O` [MT-3995]: the AUC(0-inf) (usually the area under the concentration-time curve extrapolated to infinity) in series [1] is 25000 ng·h/mL. The half-life (in general, the time needed for the level to fall by half in the phase considered) in series [2] was 8.59 h; in [3] it was 6.78 h. Moreover, the Activity in the series with CHO-K1 is 98.2%; in the series with Rattus norvegicus [7], 1.4; in the series on Rattus norvegicus [8], 1.1; in the series with Rattus norvegicus [9], 0.4; with Rattus norvegicus [10] it was 0.3; in the series with Rattus norvegicus [11], 0. The Activity in the series on Rattus norvegicus [12] turned out to be 1.1; in the series with Rattus norvegicus [13], 0.1; in the series on Rattus norvegicus [14], 1.3; in the series with Rattus norvegicus [15], 0.3; with Rattus norvegicus [16], 0; in the series with Rattus norvegicus [17], 0.7. In addition, the Activity in the series with Rattus norvegicus [18] was 0.3; in the series with Rattus norvegicus [19] it was 0; in the series on Rattus norvegicus [20], 1.1; with Rattus norvegicus [21], 0.3. Further, the median effective dose (ED50) (as a rule, the midpoint of the dose-response relation) in series [4] amounted to 1.1 mg/kg. Moreover, in the series on Rattus norvegicus [5], the “fold change (FC)” value is reported as 10. The AUC in the series on Rattus norvegicus [6] amounted to 550 mmHg.day. Further, at Glucocorticoid receptor, the IC50 (usually the concentration that gives 50% inhibition) is greater than 100 µM.
